Measured values: patent US10221163B2 (priority 2015, dated 2019)
pIC50: −log10 of the molar value. Structures can show the parent of a compound that is named as a salt. Where two headings read alike, the source gives them in different places.

How the values were obtained:
[1] = system: Escherichia coli expressing NDM-1 (CLB30005, CLB30016); format: cell-based; details: with imipenem 1 μg/ml; for Escherichia coli MITC95: NDM-1 strain, 95% inhibition of growth; for Escherichia coli expressing NDM-1 (CLB30016) MITC95: 95% inhibition of bacterial growth
In short: (§1)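 Clinical strains grown overnight on blood agar at 35°C, colonies suspended in saline, diluted 1:100 into 1.1×CAMHB. Test compound titrated with imipenem at 1 μg/ml; incubated 22–24 h at 35°C, growth read by absorbance.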

[2] = system: Klebsiella pneumoniae expressing VIM-1 (IHMA599644); format: cell-based; details: for Klebsiella pneumoniae MITC95: VIM-1 strain IHMA599644, with imipenem 1 μg/ml, 95% inhibition of growth; for Klebsiella pneumoniae expressing VIM-1 (IHMA599644) MITC95: with imipenem 1 μg/ml, 95% inhibition of bacterial growth
In short: as §1

[3] = system: Serratia marcescens expressing IMP-1 (CL5741); format: cell-based; details: for Serratia marcescens MITC95: IMP-1 strain CL5741, with imipenem 1 μg/ml, 95% inhibition of growth; for Serratia marcescens expressing IMP-1 (CL5741) MITC95: with imipenem 1 μg/ml, 95% inhibition of bacterial growth
In short: as §1

VIM-1 = VIM-1 (Pseudomonas aeruginosa (strain ATCC 15692 / DSM 22644 / CIP 104116 / JCM 14847 / LMG 12228 / 1C / PRS 101 / PAO1), UniProt A0A0F7KYQ8); assay: biochemical; details: CCF2-FA substrate, 30 pM enzyme, 2 hours at 25° C.
Procedure: Enzyme Activity: Determination of IC50
The Class B enzyme activities were measured in the presence of the test inhibitor in a fluorescence assay against a commercially available substrate consisting of a cephalosporin core linking 7-hydroxycoumarin to fluorescein (CCF2-FA). […] In a 384-well microplate, the test inhibitor was incubated with the metallo-β-lactamase enzyme and the substrate for 2 hours at 25° C. […] The IC50 value was determined from semi-logarithmic plots of enzyme inhibition versus inhibitor concentration, with a curve generated using a 4-parameter fit.

[4] = system: Pseudomonas aeruginosa efflux+ (MB9798), IMP-1; format: cell-based; design: Concentration of metallo-β-lactamase inhibitor which restores susceptibility of efflux + (MB9798) strain to imipenem: unit not given here; details: C, D serine β-lactamase inhibitor closely related to relebactam; for P. aeruginosa expressing IMP-1, efflux + (MB9798) MITC95: concentration restoring susceptibility to imipenem at 2 μg/mL in the presence of a class A; for Concentration of metallo-β-lactamase inhibitor which restores susceptibility of efflux + (MB9798) strain to imipenem: imipenem at 2 μg/mL, in the presence of a class A
In short: (§2)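 PAO1 pair, broth microdilution; fixed β-lactam (imipenem/ceftazidime) at ~CLSI breakpoint + fixed class A/C BLI for AmpC; serial MBLi titration; endpoint = MBLi conc. restoring susceptibility; MB9798:MB9799 ratio = efflux liability.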

[5] = system: Pseudomonas aeruginosa MB9798 vs MB9799
From the text: The strain background was Pseudomonas aeruginosa PAO1.
The strain set was then used as a pair to determine the effect of metallo-β-lactamase inhibitors of Formula I on the MIC of imipenem and/or ceftazidime. A fixed concentration of antibiotic was included in standard microbroth MIC tests, usually at the CLSI (Clinical and Laboratory Standards Institute) breakpoint concentration. A fixed amount of a class A/C beta-lactamase inhibitor was also included to inhibit the resident Pseudomonas AmpC enzyme. A serial titration of the metallo-β-lactamase inhibitor was included and the concentration of metallo-β-lactamase inhibitor which restores susceptibility of the strain to the included antibiotic was recorded. That concentration of metallo-β-lactamase inhibitor was then compared between the two strains to determine the fold difference between the efflux+ (MB9798) and efflux− (MB9799) strains. This was taken as an indication of the extent to which the MBLi is subject to efflux.

[6] = system: Pseudomonas aeruginosa efflux− (MB9799), IMP-1; format: cell-based; details: C, D serine β-lactamase inhibitor closely related to relebactam; for P. aeruginosa expressing IMP-1, efflux − (MB9799) MITC95: concentration restoring susceptibility to imipenem at 2 μg/mL in the presence of a class A; for Concentration of metallo-β-lactamase inhibitor which restores susceptibility of efflux − (MB9799) strain to imipenem: imipenem at 2 μg/mL, in the presence of a class A
In short: as §2

IMP-1 = IMP-1 (Serratia marcescens, UniProt P52699); assay: biochemical; format: biochemical; details: fluorescence assay, CCF2-FA substrate, 2 pM enzyme, 2 hours at 25° C., read-out: IMP-1 IC50
In short: (§3)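 Fluorescence assay of metallo-β-lactamase activity using CCF2-FA, a cephalosporin-linked 7-hydroxycoumarin–fluorescein substrate. Inhibitor, enzyme and substrate were incubated together for 2 hours at 25° C. IC50 came from a 4-parameter fit of inhibition versus inhibitor concentration.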

NDM-1 = NDM-1 (Klebsiella pneumoniae, UniProt C7C422); assay: biochemical; format: biochemical; details: fluorescence assay, CCF2-FA substrate, 1 pM enzyme, 2 hours at 25° C., read-out: NDM-1 IC50
In short: as §3

[7] = ratio MITC95 PA_9798/MITC95 PA_9799
[8] = fluorescence assay, read-out: VIM-1 IC50
[9] = fold difference between efflux+ (MB9798) and efflux− (MB9799) strains, imipenem at 2 μg/mL

Chain of IMP-1 (P52699 whole entry, looked up, species assumed): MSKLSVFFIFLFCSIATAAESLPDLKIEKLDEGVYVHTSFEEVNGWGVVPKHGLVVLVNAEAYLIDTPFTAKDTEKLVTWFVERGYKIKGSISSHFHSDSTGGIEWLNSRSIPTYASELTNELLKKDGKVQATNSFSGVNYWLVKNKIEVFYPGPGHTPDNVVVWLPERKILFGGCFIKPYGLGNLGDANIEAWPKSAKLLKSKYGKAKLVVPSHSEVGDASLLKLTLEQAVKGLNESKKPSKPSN
Chain of NDM-1 (C7C422 whole entry, looked up, species assumed): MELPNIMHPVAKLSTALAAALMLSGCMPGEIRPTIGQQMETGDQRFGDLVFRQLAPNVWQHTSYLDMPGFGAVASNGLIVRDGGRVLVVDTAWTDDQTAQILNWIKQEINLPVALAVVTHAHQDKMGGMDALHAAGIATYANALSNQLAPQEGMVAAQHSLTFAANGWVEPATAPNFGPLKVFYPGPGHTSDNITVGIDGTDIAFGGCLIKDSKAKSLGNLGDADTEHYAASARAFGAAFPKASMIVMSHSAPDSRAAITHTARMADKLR

SMILES | Escherichia coli MITC95 [1] [µM] | Klebsiella pneumoniae MITC95 [2] [µM] | Serratia marcescens MITC95 [3] [µM] | pIC50 (VIM-1; VIM-1 IC50, fluorescence assay) | P. aeruginosa expressing IMP-1, efflux + (MB9798) MITC95 [4] [µM] | Efflux ratio [5, 7] | P. aeruginosa expressing IMP-1, efflux − (MB9799) MITC95 [6] [µM] | pIC50 (IMP-1) | pIC50 (NDM-1) | Concentration of metallo-β-lactamase inhibitor which restores susceptibility of efflux + (MB9798) strain to imipenem [4] | Escherichia coli expressing NDM-1 (CLB30016) MITC95 [1] [µM] | Klebsiella pneumoniae expressing VIM-1 (IHMA599644) MITC95 [2] [µM] | Serratia marcescens expressing IMP-1 (CL5741) MITC95 [3] [µM] | pIC50 (VIM-1; [8]) | Efflux ratio [5, 9] | Concentration of metallo-β-lactamase inhibitor which restores susceptibility of efflux − (MB9799) strain to imipenem [6] | other results
Nc1nc2c(-c3ccc(S(=O)(=O)NC4CNC[C@H]4N)c(S(N)(=O)=O)c3-c3nn[nH]n3)cccc2[nH]1 (stereo in doubt) [Example 322, 4-(2-Amino-1H-benzo[d]imidazol-4-yl)-N1-((3S,4R)-4-aminopyrrolidin-3-yl)-3-(2H-tetrazol-5-yl)benzene-1,2-disulfonamide] | 0.5208 | 1.302 | 1.042 | 9.74 | 0.651 | 0.83 | 0.7813 | 9.13 | 10.27 |  |  |  |  |  |  |  | 
NCCNS(=O)(=O)c1ccc(-c2cccc(C(=O)NCC(O)CN)c2)c(-c2nn[nH]n2)c1S(N)(=O)=O (stereo in doubt) [Example 347, (S)—N-(3-amino-2-hydroxypropyl)-4′-(N-(2-aminoethyl)sulfamoyl)-3′-sulfamoyl-2′-(2H-tetrazol-5-yl)[1,1′-biphenyl]-3-carboxamide] | 1.563 | 1.563 | 1.563 | 9.27 | 1.563 | 2.00 | 0.7813 | 8.40 | 8.69 |  |  |  |  |  |  |  | 
NCC1(NS(=O)(=O)c2ccc(-c3ccc(N)nc3)c(-c3nn[nH]n3)c2S(N)(=O)=O)CCNC1 (stereo in doubt) [Example 486, (R)-N1-(3-(aminomethyl)pyrrolidin-3-yl)-4-(6-aminopyridin-3-yl)-3-(2H-tetrazol-5-yl)benzene-1,2-disulfonamide dihydrochloride] |  | 1.563 | 0.7813 | 9.49 |  |  |  |  |  | 1.563 |  |  |  |  |  |  | Escherichia coli MITC95 ([1]; dihydrochloride): 0.7813 µM; Efflux ratio ([5]; fold difference between efflux+ (MB9798) and efflux− (MB9799) strains, imipenem at 2 μg/mL, dihydrochloride): 2.00; Concentration of metallo-β-lactamase inhibitor which restores susceptibility of efflux − (MB9799) strain to imipenem ([6]; dihydrochloride): 0.7813; pIC50 (IMP-1; dihydrochloride): 9.37; pIC50 (NDM-1; dihydrochloride): 9.76
Nc1nc2cccc(-c3ccc(S(N)(=O)=O)c(S(N)(=O)=O)c3-c3nn[nH]n3)c2[nH]1 [Example 1, 4-(2-amino-3H-benzo[d]imidazol-4-yl)-3-(2H-tetrazol-5-yl)benzene-1,2-disulfonamide] |  |  |  |  | 0.5573 | 0.65 | 0.8542 | 9.24 | 10.07 |  | 0.5156 | 1.448 | 0.8542 | 9.58 |  |  | 
NCCNS(=O)(=O)c1ccc(-c2cccc3oc(N)nc23)c(-c2nn[nH]n2)c1S(N)(=O)=O [Example 11, 4-(2-aminobenzo[d]oxazol-4-yl)-N^1-(2-aminoethyl)-3-(2H-tetrazol-5-yl)benzene-1,2-disulfonamide] |  |  |  |  | 0.3906 | 1.00 | 0.3906 |  |  |  | 0.7813 | 1.563 | 0.7813 | 10.30 |  |  | 
Nc1nc2c(-c3ccc(S(=O)(=O)N[C@@H](N)c4ccccn4)c(S(N)(=O)=O)c3-c3nnn[nH]3)cccc2s1.O=C(O)C(F)(F)F [Example 99, (R)-(4-(2-aminobenzo[d]thiazol-4-yl)-2-sulfamoyl-3-(1H-tetrazol-5-yl)phenylsulfonamido)(pyridin-2-yl)methanaminium 2,2,2-trifluoroacetate] |  |  |  |  | 25 | 8.00 | 3.125 |  |  |  | 12.5 | 25 | 6.25 | 9.30 |  |  | 
C[C@H](CN)NS(=O)(=O)c1ccc(-c2cccnc2N)c(-c2nn[nH]n2)c1S(N)(=O)=O [Example 212, (R)-N1-(1-amino-propan-2-yl)-4-(2-aminopyridin-3-yl)-3-(2H-tetrazol-5-yl)benzene-1,2-disulfonamide] |  |  |  |  | 1.563 | 1.00 | 1.563 |  |  |  | 0.3906 | 1.563 | 0.7813 | 9.81 |  |  | 
NCc1sc(N)nc1-c1cccc(-c2ccc(S(=O)(=O)N[C@@H]3CCNC3)c(S(N)(=O)=O)c2-c2nnn[nH]2)c1 [Example 432] | 0.7813 | 1.563 | 0.7813 | 9.41 |  |  |  |  |  | 0.7813 |  |  |  |  | 1.00 | 0.7813 | 
NCCNC(=O)c1cc(Cl)cc(-c2ccc(S(=O)(=O)N[C@@H]3CCNC3)c(S(N)(=O)=O)c2-c2nn[nH]n2)c1N [Example 450] | 1.563 | 1.563 | 1.563 |  |  |  |  |  |  | 1.563 |  |  |  | 9.56 | 2.00 | 0.7813 | 
CNc1nc2c(-c3ccc(S(=O)(=O)NCCN)c(S(N)(=O)=O)c3-c3nn[nH]n3)cccc2[nH]1 [Example 467, N1-(2-aminoethyl)-4-(2-(methylamino)-1H-benzo[d]imidazol-4-yl)-3-(2H-tetrazol-5-yl)benzene-1,2-disulfonamide] | 0.7813 | 1.563 | 0.7813 |  |  |  |  |  |  | 0.3906 |  |  |  | 9.92 | 0.50 | 0.7813 | 
